Measurements taken from patent US4959493A, “Carboxycyclopropylglycine and process for producing the same” (Suntory Limited, priority 1987, dated 1990).
Like-named read-outs stand apart in the source and are kept apart here.

Assays:
[1] = isolated from Aesculus parviflora and Blighia sapida; Fowden et al. 1969; cited from earlier work
[2] = test system: motoneurons in the isolated spinal cord of a neonatal rat; assay: Depolarization of motoneurons in the isolated spinal cord of a neonatal rat (extracellular records, Evans and Watkins method); type: cell-based; details: for Effect of Mg++ ions on depolarizing activity: in the presence of Mg++ ions; for minimal effective concentration: read-out: MEC (minimum effective concentration for causing depolarizations of motoneurons); for Agonist type (glutamate receptor subtype): isolated new-born rat spinal cord; for Specific activity: relative to L-glutamic acid = 1
Method: In accordance with the method described in Evans, R. H. and Watkins, J. C., European J. Pharmac., 50 123-129, 1978, the minimum effective concentrations (MEC) of L-glutamic acid and compounds (1), (1a), (1b) and (1c) of the present invention for causing depolarizations of motoneurons in the isolated spinal cord of a neonatal rat under perfusion with an artificial physiological solution ([…] fluid) were measured as extracellular records in the […] root.

[3] = isolated neonatal rat spinal cord perfused with artificial physiological solution, (-) = Ineffective

Compound: N[C@H](C(=O)O)[C@H]1C[C@@H]1C(=O)O [(1a), (2S,3S,4S)-carboxycyclopropylglycine]
- Undesired effects [1]: hypoglycemia and vomiting
- Effect of Mg++ ions on depolarizing activity [2]: Unaffected
- minimal effective concentration [2, 3]: 50 µM
- Agonist type (glutamate receptor subtype) [2]: agonist of the kainate type
- Specific activity ([2]; (-) = Ineffective): 5

Compound: N[C@@H](CCC(=O)O)C(=O)O [L-Glu, L-glutamic acid, reference compound]
- minimal effective concentration ([2]; Rattus norvegicus): 100 µM
- Specific activity ([2]; (-) = Ineffective): 1

Compound: N[C@H](C(=O)O)[C@@H]1C[C@@H]1C(=O)O [Compound (1), (2S,3R,4S)-carboxycyclopropylglycine]
- Potency relative to NMDA ([2]; compared with NMDA activity of 2×10^-5 molar): 5 times
- Effect of Mg++ ions on depolarizing activity [2]: activity disappeared
- minimal effective concentration [2, 3]: 1 µM
- Agonist type (glutamate receptor subtype) [2]: agonist of the NMDA type
- Specific activity ([2]; (-) = Ineffective): 100

Compound: N[C@H](C(=O)O)[C@H]1C[C@H]1C(=O)O [(1c), (2S,3S,4R)-carboxycyclopropylglycine]
- Undesired effects [1]: hypoglycemia and vomiting
- minimal effective concentration [2, 3]: 500 µM
- Specific activity ([2]; (-) = Ineffective): 0.5
